Data on two molecules can be found in patent US6372737B1 (priority 1996, dated 2002).

Common to all, as to format: in vivo
The test system of one experiment is Phytophthora infestans. As to the kind of experiment: whole plant or invertebrate. The settings on record: Phytophthora infestans, in Solanum lycopersicum, 72 h, read-out: % efficacy.
Another experiment has as its system Fusarium nivale. As to the kind of experiment: Fusarium nivale test (triticale)/seed treatment. The settings on record: dry seed dressing, about 3 weeks after sowing.
In another experiment the test system is Rhizoctonia solani. As to the kind of experiment: Rhizoctonia solani test (cotton)/seed treatment. The settings on record: application rate 75 mg/kg of seed, dry seed dressing, after 8 days. The method, then:
The active compounds are applied as dry seed dressing. This is prepared by extending the respective active compound with ground mineral to give a finely pulverulent mixture which ensures uniform distribution on the seed surface.
To dress the seed, the infected seed together with the seed dressing is shaken for 3 minutes in a sealed glass flask.
2×50 corns of seed are sown at a depth of 2 cm into standard soil which is infected with Rhizoctonia solani, and the seeds are cultivated in a greenhouse at a temperature of about 22° C. in seed trays which receive a light regimen of 15 hours per day.
Evaluation is carried out after 8 days. 0% means an efficacy which corresponds to that of the untreated control, while an efficacy of 100% means that no disease is observed.

Experiment [1] concerns Erysiphe graminis f.sp. hordei. Put plainly: Erysiphe test (barley)/curative. The note with it: curative, 7 days after inoculation. The method, then: (§1) Solvent: 25 parts by weight of N,N-dimethylacetamide
(§2) Emulsifier: 0.6 part by weight of alkylaryl polyglycol ether
(§3) To produce a suitable preparation of active compound, 1 part by weight of active compound or active compound combination is mixed with the stated amounts of solvent and emulsifier, and the concentrate is diluted with water to the desired concentration.
To test for curative activity, young plants are dusted with spores of Erysiphe graminis f.sp. hordei. 48 hours after the inoculation, the plants are sprayed with the preparation of active compound at the stated application rate.
(§4) The plants are placed in a greenhouse at a temperature of about 20° C. and a relative atmospheric humidity of about 80%, in order to promote the development of mildew pustules.
(§5) Evaluation is carried out 7 days after the inoculation. 0% means an efficacy which corresponds to that of the control, whereas an efficacy of 100% means that no infection is observed.

The subject of experiment [2] is Leptosphaeria nodorum. As to the kind of experiment: Leptosphaeria nodorum test (wheat)/curative. The settings on record: curative, 10 days after inoculation. The method, then: as §1, §2, §3
To test for curative activity, young plants are sprayed with a conidia suspension of Leptosphaeria nodorum. The plants remain in an incubation cabin at 20° C. and 100% relative atmospheric humidity for 48 hours and are then sprayed with the preparation of active compound at the stated application rate.
The plants are placed in a greenhouse at a temperature of about 15° C. and a relative atmospheric humidity of about 80%.
(§6) Evaluation is carried out 10 days after the inoculation. 0% means an efficacy which corresponds to that of the control, whereas an efficacy of 100% means that no infection is observed.

For another experiment, the system named is Pyrenophora teres. Put plainly: Pyrenophora teres test (barley)/curative. The note with it: application rate 6.25 g/ha, curative, 7 days after inoculation. The method, then:
as §1, §2, §3
To test for curative activity, young plants are sprayed with a conidia suspension of Pyrenophora teres. The plants remain in an incubation cabin at 20° C. and 100% relative atmospheric humidity for 48 hours. The plants are subsequently sprayed with the preparation of active compound at the stated application rate.
The plants are placed in a greenhouse at a temperature of about 20° C. and a relative atmospheric humidity of about 80%.
as §5

For experiment [3], the system named is Leptosphaeria nodorum. Put plainly: Leptosphaeria nodorum test (wheat)/protective. The note with it: Parastagonospora nodorum, 240 h, application rate 6.25 g/ha, protective, 10 days after inoculation, read-out: Efficacy in %. The method, then: as §1, §2, §3
To test for protective activity, young plants are sprayed with the preparation of active compound at the stated application rate. After the spray coating has dried on, the plants are sprayed with a spore suspension of Leptosphaeria nodorum. The plants remain in an incubation cabin at 20EC and 100% relative atmospheric humidity for 48 hours.
The plants are placed in a greenhouse at a temperature of about 15° C. and a relative atmospheric humidity of 80%.
as §6

The test system of experiment [4] is Puccinia recondita. Put plainly: Puccinia test (wheat)/protective. The settings on record: Puccinia recondita, 240 h, application rate 6.25 g/ha, protective, 10 days after inoculation, read-out: Efficacy in %. The method, then: as §1, §2, §3
To test for protective activity, young plants are sprayed with the preparation of active compound at the stated application rate. After the spray coating has dried on, the plants are sprayed with a conidia suspension of Puccinia recondita. The plants remain in an incubation cabin at 20° C. and 100% relative atmospheric humidity for 48 hours.
The plants are then placed in a greenhouse at a temperature of about 20° C. and a relative atmospheric humidity of 80%, in order to promote the development of rust pustules.
as §6

The test system of the next experiment is Sphaerotheca fuliginea. As to the kind of experiment: Sphaerotheca test (cucumber)/protective. The settings on record: Podosphaera fuliginea, 240 h, application rate 2.5 g/ha, protective, 10 days after inoculation, read-out: % efficacy. The method, then:
To test for protective activity, young plants are sprayed with the commercial active compound preparation at the stated application rate. After the spray coating has dried on, the plants are inoculated with an aqueous spore suspension of Sphaerotheca fuliginea. The plants then remain in a greenhouse at about 23° C. and about 70% relative atmospheric humidity.
Evaluation is carried out 10 days after the inoculation. 0% means an efficacy corresponding to that of the control, and an efficacy of 100% means that no infection is observed.

The subject of the next experiment is Botrytis cinerea. Put plainly: Botrytis test (beans)/protective. The note with it: 48 h, application rate 50 g/ha, protective, two days after inoculation, read-out: % efficacy. The method, then:
To test for protective activity, young plants are sprayed with the commercial active compound preparation at the stated application rate. After the spray coating has dried on, 2 small pieces of agar covered with Botrytis cinerea are placed on each leaf. The inoculated plants are placed in a darkened chamber at about 20° C. and 100% relative atmospheric humidity.
Two days after the inoculation, the size of the infected spots on the leaves is evaluated. 0% means an efficacy corresponding to that of the control, and an efficacy of 100% means that no infection is observed.

Experiment [5] has as its system Erysiphe graminis f.sp. tritici. Put plainly: Erysiphe test (wheat)/curative. The note with it: curative, 7 days after inoculation. The method, then:
as §1, §2, §3
To test for curative activity, young plants are dusted with spores of Erysiphe graminis f.sp. tritici. 48 hours after the inoculation, the plants are sprayed with the preparation of active compound at the stated application rate.
as §4, §5

The test system of experiment [6] is Puccinia recondita. Put plainly: Puccinia test (wheat)/curative. The settings on record: application rate 6.25 g/ha, curative, 10 days after inoculation. The method, then:
as §1, §2, §3
To test for curative activity, young plants are sprayed with a conidia suspension of Puccinia recondita. The plants remain in an incubation cabin at 20° C. and 100% relative atmospheric humidity for 48 hours. The plants are subsequently sprayed with the preparation of active compound at the stated application rate.
The plants are placed in a greenhouse at a temperature of about 20° C. and a relative atmospheric humidity of about 80%, in order to promote the development of rust pustules.
as §6

In experiment [7] the test system is Erysiphe graminis fsp. tritici. As to the kind of experiment: Erysiphe test (wheat)/protective. The note with it: protective, 7 days after inoculation. The method, then:
as §1, §2, §3
To test for protective activity, young plants are sprayed with the preparation of active compound at the stated application rate.
After the spray coating has dried on, the plants are dusted with spores of Erysiphe graminis fsp. tritici.
as §4, §5

Setting [8] is: application rate 25 mg/kg of seed.

Protocol for Fusarium nivale: About 3 weeks after sowing, the plants are evaluated for symptoms of snow mould.

Take `CC(C)(C)C(O)C(Oc1ccc(Cl)cc1)n1cncn1` (stereo not drawn) [(F), triadimenol]: in the experiment on Phytophthora infestans, the Emax at 5 g/ha was 0%. Also, the Efficacy in % in the experiment on Fusarium nivale (setting [8]) is reported as 52%; in the experiment with Rhizoctonia solani, 48%; in experiment [1] (application rate 6.25 g/ha), 67%; in the experiment on Leptosphaeria nodorum [2] (application rate 6.25 g/ha), 25%; with Pyrenophora teres it was 0%. For the same molecule, the results for the pest or weed control at 6.25 g/ha in the experiment with Leptosphaeria nodorum [3] and in the experiment with Puccinia recondita [4] were 0% and 13%, respectively.
In the case of `CON=C(C1=NOCCO1)c1ccccc1Oc1ncnc(Oc2ccccc2Cl)c1F` [(I)], the Emax at 0.5 g/ha in the experiment with Phytophthora infestans stood at 9%. Also, in the experiment with Phytophthora infestans, the Emax at 1 g/ha was 20%. In the experiment with Phytophthora infestans, the Emax at 5 g/ha was 45%. Also, the Emax at 2.5 g/ha with Sphaerotheca fuliginea is 22%. Also, the Emax at 50 g/ha with Botrytis cinerea came to 15%. In addition, the Efficacy in % is 89% in the experiment on Fusarium nivale (setting [8]); 93% with Fusarium nivale (application rate 75 mg/kg of seed); 16% in the experiment with Rhizoctonia solani; 0% in [1] (application rate 6.25 g/ha); 33% in experiment [1] (application rate 12.5 g/ha); 75% in experiment [1] (application rate 25 g/ha). Besides, the Efficacy in % in experiment [5] (application rate 6.25 g/ha) is recorded as 0%; in experiment [5] (application rate 25 g/ha), 33%; in the experiment on Leptosphaeria nodorum [2] (application rate 6.25 g/ha), 62%; in the experiment with Leptosphaeria nodorum [2] (application rate 12.5 g/ha), 62%; in the experiment with Pyrenophora teres, 0%; in the experiment on Puccinia recondita [6], 67%. Moreover, the figures for the Efficacy in % in experiment [7] (application rate 6.25 g/ha), in experiment [7] (application rate 12.5 g/ha) and in experiment [7] (application rate 25 g/ha) were 0%, 29% and 79%, respectively. Further, the pest or weed control at 6.25 g/ha in the experiment on Leptosphaeria nodorum [3] was 25%; with Puccinia recondita [4], 81%.
